Experimental data published in paper PMC10873978, “Novel tetrahydroisoquinolines as DHFR and CDK2 inhibitors: synthesis, characterization, anticancer activity and antioxidant properties” (BMC Chemistry, 2024).
“Also recorded” adds a separate entry of the source. One block for each compound: values may come before it.

Tests used:
Eef2 kinase = Eef2 kinase (Homo sapiens, UniProt O00418); assay: Eef2 kinase inhibition; type: biochemical
A549 cell line = assay: In vitro cytotoxic activity, MTT method, A549
Method: (§1) Cell lines: The in vitro human breast cancerous cell line (MCF7), lung cancerous cell lines (A549) and normal cell lines were purchased from Serum and Vaccine formulation in Cairo-Egypt.
(§2) In vitro cytotoxic activity of all synthesized compounds against two human breast cell line (MCF7) and lung cell lines (A549) was evaluated according to the MTT method. Firstly, Growth the cell line medium in 96 well tissue culture plate was injected with 10^5 cells/mL (100 uL/plate well) of the cell line and incubated at 37 °C for 24 h to develop a monolayer sheet then the formed growth medium was poured from 96 well microtiter plates after the confluent sheet of cells. […] Secondly, add 0.1 mL of each concentration tetrahydroisoquinoline sample to each plate. The plates were incubated at 37 °C. Thirdly MTT solution (5 mg/mL in PBS) is prepared. Add 20 µL of MTT solution to each well plates. And shaking in 150 rpm for 5 min, to mix the MTT into the media. Then incubate at (37 °C, 5% CO2) for 1–5 h. Finally read the optical density at 560 nm and subtract background at 620 nm.
(§3) In this work, doxorubicin was used as a positive control drug for comparison with the synthesized compounds under the same experimental conditions.

MCF7 cell line = assay: In vitro cytotoxic activity, MTT method, MCF7; type: cell-based, human
Method: as §1, §2, §3

[1] = DPPH scavenging antioxidant activity
Method: The antioxidant activity of ten compounds was determined using DPPH [32–34]. A solution 1: prepared by dissolving DPPH (0.002 g) in ethanol (50 mL etnanol). Solution 2: prepared by dissolving different weights 0.05, 0.01 g of each sample in 1 mL of DMSO then take 10 µL of each sample solution with 1 mL ethanol. Then mix 1 mL of solution 1 with 1 mL of solution 2 then vortex the resulting mixture in the dark for about 30 min. The absorbance of the mixture was measured by spectrophotometer at λmax = 517 nm against blank 1 mL absolute ethanol and compared to the ascorbic acid (Vitamin C).
Ten newly synthesized compounds were studied as in vitro antioxidants by measuring of their DPPH scavenging activity which is represented as a percentage % [32]^. Results are represented by mean ± SD of three replicates. […] The higher dose concentration of 0.05 μg/mL represents higher antioxidant activity. […] The high antioxidant activity is referred to the presence of C=O, NH2, and OH groups like ascorbic acid which can be easily oxidized and reduced and can be used as antioxidant drugs. (Fig. 8 and Table 9).

%inh (Eef2 kinase; Eef2, conc 0.01 (log -2)): 20.1%
%inh (Eef2 kinase; Eef2, conc 0.1 (log -1)): 33.9%
%inh (Eef2 kinase; Eef2, conc 1 (log 0)): 62.7%
%inh (Eef2 kinase; Eef2, conc 10 (log 1)): 84.3%
%inh (Eef2 kinase; Eef2, conc 100 (log 2)): 92.6%
SMILES: CCCCCCCCCCCCCCCCn1cc[n+](Cc2ccccc2)c1C.[I-] [NH125, reference compound]

SMILES: CSc1nc(C)c2c(c1C#N)CC(C)(O)C(C(C)=O)C2c1ccc(N(C)C)cc1 (centres unmarked) [Compound 3, 7-Acetyl-4-cyano-1,6-dimethyl-3-methylthio-6-hydroxy-8-(4-N,N-dimethyl-aminophenyl)-5,6,7,8-tetrahydroisoquinoline]
Toxicity % (A549 cell line; A549, Conc. 0.0487 µMol): 0.30%
Viability % (A549 cell line; A549, Conc. 0.0487 µMol): 99.700%
Toxicity % (A549 cell line; A549, Conc. 0.0975 µMol): 0.50%
Viability % (A549 cell line; A549, Conc. 0.0975 µMol): 99.50%
Toxicity % (A549 cell line; A549, Conc. 0.195 µMol): 0.789%
Viability % (A549 cell line; A549, Conc. 0.195 µMol): 99.21%
Toxicity % (A549 cell line; A549, Conc. 0.391 µMol): 5.089%
Viability % (A549 cell line; A549, Conc. 0.391 µMol): 94.91%
Toxicity % (A549 cell line; A549, Conc. 0.781 µMol): 23.59%
Viability % (A549 cell line; A549, Conc. 0.781 µMol): 76.41%
Toxicity % (A549 cell line; A549, Conc. 1.562 µMol): 38.19%
Viability % (A549 cell line; A549, Conc. 1.562 µMol): 61.81%
Toxicity % (A549 cell line; A549, Conc. 3.125 µMol): 53.18%
Viability % (A549 cell line; A549, Conc. 3.125 µMol): 46.82%
Toxicity % (A549 cell line; A549, Conc. 6.25 µMol): 70.73%
Viability % (A549 cell line; A549, Conc. 6.25 µMol): 29.27%
Toxicity % (A549 cell line; A549, Conc. 12.5 µMol): 89.43%
Viability % (A549 cell line; A549, Conc. 12.5 µMol): 10.57%
Toxicity % (A549 cell line; A549, Conc. 25 µMol): 96.45%
Viability % (A549 cell line; A549, Conc. 25 µMol): 3.55%
IC50 (A549 cell line; Homo sapiens, read-out: IC50 ± SD): 2469 ± 6 nM
IC50 (MCF7 cell line; Homo sapiens, MCF7, MCF7 cell line, MTT): 562 ± 7 nM
Toxicity % (MCF7 cell line; MCF7, 0.0487 µMol): 5.124%
Viability % (MCF7 cell line; MCF7, 0.0487 µMol): 94.876%
Toxicity % (MCF7 cell line; MCF7, 0.0975 µMol): 7.124%
Viability % (MCF7 cell line; MCF7, 0.0975 µMol): 92.876%
Toxicity % (MCF7 cell line; MCF7, 0.195 µMol): 8.333%
Viability % (MCF7 cell line; MCF7, 0.195 µMol): 91.67%
Toxicity % (MCF7 cell line; MCF7, 0.391 µMol): 38.81%
Viability % (MCF7 cell line; MCF7, 0.391 µMol): 61.19%
Toxicity % (MCF7 cell line; MCF7, 0.781 µMol): 66.75%
Viability % (MCF7 cell line; MCF7, 0.781 µMol): 33.25%
Toxicity % (MCF7 cell line; MCF7, 1.562 µMol): 82.8%
Viability % (MCF7 cell line; MCF7, 1.562 µMol): 17.2%
Toxicity % (MCF7 cell line; MCF7, 3.125 µMol): 91.22%
Viability % (MCF7 cell line; MCF7, 3.125 µMol): 8.783%
Toxicity % (MCF7 cell line; MCF7, 6.25 µMol): 95.14%
Viability % (MCF7 cell line; MCF7, 6.25 µMol): 4.861%
Toxicity % (MCF7 cell line; MCF7, 12.5 µMol): 97.43%
Viability % (MCF7 cell line; MCF7, 12.5 µMol): 2.574%
Toxicity % (MCF7 cell line; MCF7, 25 µMol): 97.06%
Viability % (MCF7 cell line; MCF7, 25 µMol): 2.941%
DPPH scavenging, inhibition (%) ([1]; 0.01 µg/mL): 25.58 ± 2.20%
DPPH scavenging, inhibition (%) ([1]; 0.05 µg/mL): 81.39 ± 3.87%
antioxidant activity compared with Vitamin C ([1]; DPPH): higher result than Vitamin C; also recorded: higher antioxidant activity than Vitamin C
